Earlier results in patent publication US20060280786A1, “PHARMACEUTICAL FORMULATIONS FOR MINIMIZING DRUG-DRUG INTERACTIONS” (priority 2005, published 2006).

Details: 200 mg dose of itraconazole

CCC(C)n1ncn(-c2ccc(N3CCN(c4ccc(OCC5COC(Cn6cncn6)(c6ccc(Cl)cc6Cl)O5)cc4)CC3)cc2)c1=O (stereo not shown) [itraconazole]
fu (fraction of inhibitor drug unbound in plasma): 0.035
